Laboratory results as given in the supplement of paper PMC10307832.

Columns and labels:
Assay in all cases: relative viability (nuclei count vs DMSO), 5 days (fraction); higher = more cells survive
A-427 = tested on: A-427
Outline: (§1)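 Lung cancer cell lines in 1536-well plates got either a single drug or a fixed anchor-drug dose together with five library-drug doses (not always all listed) in √10 steps, by pin tool, on the day after seeding. Nuclei were counted after 5 days, and relative viability is the treated-to-vehicle ratio of nuclei counts. Values are medians of duplicate plates.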

ABC-1 = tested on: ABC-1
Outline: as §1

COR-L23 = tested on: COR-L23
Outline: as §1

ChaGo-K-1 = tested on: ChaGo-K-1
Outline: as §1

HARA = tested on: HARA
Outline: as §1

LCLC-97TM1 = tested on: LCLC-97TM1
Outline: as §1

LK-2 = tested on: LK-2
Outline: as §1

LOU-NH91 = tested on: LOU-NH91
Outline: as §1

LU99A = tested on: LU99A
Outline: as §1

NCI-H1395 = tested on: NCI-H1395
Outline: as §1

NCI-H1651 = tested on: NCI-H1651
Outline: as §1

NCI-H1734 = tested on: NCI-H1734
Outline: as §1

NCI-H1792 = tested on: NCI-H1792
Outline: as §1

NCI-H1975 = tested on: NCI-H1975
Outline: as §1

NCI-H2023 = tested on: NCI-H2023
Outline: as §1

NCI-H2126 = tested on: NCI-H2126
Outline: as §1

NCI-H2342 = tested on: NCI-H2342
Outline: as §1

NCI-H23 = tested on: NCI-H23
Outline: as §1

NCI-H2405 = tested on: NCI-H2405
Outline: as §1

NCI-H3122 = tested on: NCI-H3122
Outline: as §1

NCI-H460 = tested on: NCI-H460
Outline: as §1

NCI-H661 = tested on: NCI-H661
Outline: as §1

NCI-H838 = tested on: NCI-H838
Outline: as §1

SK-MES-1 = tested on: SK-MES-1
Outline: as §1

SW 1573 = tested on: SW 1573
Outline: as §1

Nc1cccc2c1CN(C1CCC(=O)NC1=O)C2=O (centres undefined) [Lenalidomide] + Cc1nc(Nc2ncc(C(=O)Nc3c(C)cccc3Cl)s2)cc(N2CCN(CCO)CC2)n1 [Dasatinib] (partner 0.075 µM)
relative viability (A-427; first compound 0.253 µM): 0.58 | relative viability (A-427; first compound 0.8 µM): 0.851 | relative viability (A-427; first compound 2.53 µM): 0.752 | relative viability (A-427; first compound 8 µM): 0.644 | relative viability (ABC-1; first compound 0.253 µM): 0.591 | relative viability (ABC-1; first compound 0.8 µM): 0.482 | relative viability (ABC-1; first compound 2.53 µM): 0.602 | relative viability (ABC-1; first compound 8 µM): 0.55 | relative viability (COR-L23; first compound 0.253 µM): 0.541 | relative viability (COR-L23; first compound 0.8 µM): 0.507 | relative viability (COR-L23; first compound 2.53 µM): 0.63 | relative viability (COR-L23; first compound 8 µM): 0.569 | relative viability (ChaGo-K-1; first compound 0.253 µM): 0.565 | relative viability (ChaGo-K-1; first compound 0.8 µM): 0.495 | relative viability (ChaGo-K-1; first compound 2.53 µM): 0.677 | relative viability (ChaGo-K-1; first compound 8 µM): 0.595 | relative viability (HARA; first compound 0.253 µM): 0.3 | relative viability (HARA; first compound 2.53 µM): 0.293 | relative viability (HARA; first compound 8 µM): 0.287 | relative viability (LCLC-97TM1; first compound 0.253 µM): 0.634 | relative viability (LCLC-97TM1; first compound 0.8 µM): 0.939 | relative viability (LCLC-97TM1; first compound 2.53 µM): 0.909 | relative viability (LCLC-97TM1; first compound 8 µM): 0.886 | relative viability (LK-2; first compound 0.253 µM): 0.401 | relative viability (LK-2; first compound 0.8 µM): 0.332 | relative viability (LK-2; first compound 2.53 µM): 0.249 | relative viability (LK-2; first compound 8 µM): 0.172 | relative viability (LOU-NH91; first compound 0.253 µM): 0.558 | relative viability (LOU-NH91; first compound 0.8 µM): 0.435 | relative viability (LOU-NH91; first compound 2.53 µM): 0.555 | relative viability (LOU-NH91; first compound 8 µM): 0.456 | relative viability (LU99A; first compound 0.253 µM): 0.473 | relative viability (LU99A; first compound 0.8 µM): 0.471 | relative viability (LU99A; first compound 2.53 µM): 0.54 | relative viability (LU99A; first compound 8 µM): 0.308 | relative viability (NCI-H1395; first compound 0.253 µM): 0.428 | relative viability (NCI-H1395; first compound 0.8 µM): 0.383 | relative viability (NCI-H1395; first compound 2.53 µM): 0.392 | relative viability (NCI-H1395; first compound 8 µM): 0.367 | relative viability (NCI-H1651; first compound 0.253 µM): 0.386 | relative viability (NCI-H1651; first compound 0.8 µM): 0.419 | relative viability (NCI-H1651; first compound 2.53 µM): 0.617 | relative viability (NCI-H1651; first compound 8 µM): 0.375 | relative viability (NCI-H1734; first compound 0.253 µM): 0.506 | relative viability (NCI-H1734; first compound 0.8 µM): 0.474 | relative viability (NCI-H1734; first compound 2.53 µM): 0.562 | relative viability (NCI-H1734; first compound 8 µM): 0.4 | relative viability (NCI-H1792; first compound 0.253 µM): 0.8 | relative viability (NCI-H1792; first compound 0.8 µM): 0.69 | relative viability (NCI-H1792; first compound 2.53 µM): 0.893 | relative viability (NCI-H1792; first compound 8 µM): 0.865 | relative viability (NCI-H1975; first compound 0.253 µM): 0.406 | relative viability (NCI-H1975; first compound 0.8 µM): 0.287 | relative viability (NCI-H1975; first compound 2.53 µM): 0.486 | relative viability (NCI-H1975; first compound 8 µM): 0.366 | relative viability (NCI-H2023; first compound 0.253 µM): 0.612 | relative viability (NCI-H2023; first compound 0.8 µM): 0.515 | relative viability (NCI-H2023; first compound 2.53 µM): 0.608 | relative viability (NCI-H2023; first compound 8 µM): 0.416 | relative viability (NCI-H2126; first compound 0.253 µM): 0.661 | relative viability (NCI-H2126; first compound 0.8 µM): 0.559 | relative viability (NCI-H2126; first compound 2.53 µM): 0.678 | relative viability (NCI-H2126; first compound 8 µM): 0.479 | relative viability (NCI-H2342; first compound 0.253 µM): 0.312 | relative viability (NCI-H2342; first compound 0.8 µM): 0.305 | relative viability (NCI-H2342; first compound 2.53 µM): 0.322 | relative viability (NCI-H2342; first compound 8 µM): 0.3 | relative viability (NCI-H23; first compound 0.253 µM): 0.857 | relative viability (NCI-H23; first compound 0.8 µM): 0.543 | relative viability (NCI-H23; first compound 2.53 µM): 0.97 | relative viability (NCI-H23; first compound 8 µM): 0.687 | relative viability (NCI-H2405; first compound 0.253 µM): 0.23 | relative viability (NCI-H2405; first compound 0.8 µM): 0.185 | relative viability (NCI-H2405; first compound 2.53 µM): 0.217 | relative viability (NCI-H2405; first compound 8 µM): 0.21 | relative viability (NCI-H3122; first compound 0.253 µM): 0.897 | relative viability (NCI-H3122; first compound 0.8 µM): 0.991 | relative viability (NCI-H3122; first compound 2.53 µM): 0.746 | relative viability (NCI-H3122; first compound 8 µM): 0.677 | relative viability (NCI-H460; first compound 0.253 µM): 0.597 | relative viability (NCI-H460; first compound 0.8 µM): 0.473 | relative viability (NCI-H460; first compound 2.53 µM): 0.673 | relative viability (NCI-H460; first compound 8 µM): 0.308 | relative viability (NCI-H661; first compound 0.253 µM): 0.934 | relative viability (NCI-H661; first compound 0.8 µM): 0.854 | relative viability (NCI-H661; first compound 2.53 µM): 0.918 | relative viability (NCI-H661; first compound 8 µM): 0.86 | relative viability (NCI-H838; first compound 0.253 µM): 0.368 | relative viability (NCI-H838; first compound 0.8 µM): 0.301 | relative viability (NCI-H838; first compound 2.53 µM): 0.302 | relative viability (NCI-H838; first compound 8 µM): 0.252 | relative viability (SK-MES-1; first compound 0.253 µM): 0.421 | relative viability (SK-MES-1; first compound 0.8 µM): 0.422 | relative viability (SK-MES-1; first compound 2.53 µM): 0.499 | relative viability (SK-MES-1; first compound 8 µM): 0.413 | relative viability (SW 1573; first compound 0.253 µM): 0.637 | relative viability (SW 1573; first compound 0.8 µM): 0.547 | relative viability (SW 1573; first compound 2.53 µM): 0.455 | relative viability (SW 1573; first compound 8 µM): 0.392
